Laboratory results: article PMC12118597 (Science Advances, 2025)
Like-named read-outs stand apart in the source and are kept apart here.

Assays:
[1] = biological target: T1, SARS-CoV-2 NSP3 macrodomain (Mac1) (Severe acute respiratory syndrome coronavirus 2, UniProt P0DTD1); experiment: biochemical; type: binding; settings: for Average % competition: Single dose, concentration 200 μM
[2] = biological target: T1, SARS-CoV-2 NSP3 macrodomain (Mac1); type: binding; settings: for PanDDA run, TFA/DMSO background map: 1-BDC / PanDDA run, TFA/DMSO background map: Hit: crystal soak 10 mM; for Number of isomers bound: ligand modeling, Mac1 crystal soak; for Isomers modeled: stereoisomer(s) modeled as bound, residues 201/202/203
[3] = compound at 200 μM, mean of three to four technical replicates, read-out: % competition at 200 μM (preliminary HTRF screen)
[4] = SARS CoV-2 macrodomain HTRF assay
[5] = SARS CoV-2 macrodomain HTRF assay, dose-response, read-out: IC50
[6] = SARS CoV-2 macrodomain HTRF assay, single dose concentration 200 μM, read-out: Average % competition

SMILES | Average % competition [1] | inhibition at 200 µM [1, 3] | PanDDA run, TFA/DMSO background map: 1-BDC [2] | PanDDA run, TFA/DMSO background map: Hit [2] | Number of isomers bound [2] | also measured
OCC(CC1CCOC1)Nc1ncnc2[nH]ccc12 (stereo not shown) [AVI-3665] | 11% | 11% | 0.15 | TRUE | 1 | –
CCC(O)[C@H]1CCCN1c1ncnc2[nH]ccc12 (stereo partly shown) [AVI-3666] | – | – | – | – | 1 | Ligand efficiency (binding enery per heavy atom) [1, 4]: 0.34
CCC(Nc1ncnc2[nH]ccc12)C(C)(C)O (stereo not shown) [AVI-3667] | 51% | 51% | 0.07 | TRUE | 1 | –
CC(c1ccccc1)C(CO)Nc1ncnc2[nH]ccc12 (stereo not shown) [AVI-3669] | – | – | 0.09 | TRUE | 1 | Ligand efficiency ([1]; Binding energy per heavy atom): 0.33; fold more potent / increased binding affinity than AVI-313 parent ([1]; HTRF IC50 compared with AVI-313): > 10 fold; Ki [1, 4]: 8.1 µM; Ligand efficiency (binding enery per heavy atom) [1, 4]: 0.33; IC50 ([1]; read-out: IC50 (confirmatory HTRF dose-response screen)): 8.7 µM
O=C(O)C(F)(F)F.OCC1(Nc2ncnc3[nH]ccc23)CCC1 [AVI-3670] | – | – | 0.12 | TRUE | 1 | Ki [1, 4]: 36 µM; Ligand efficiency (binding enery per heavy atom) [1, 4]: 0.38; IC50 [1, 5]: 39 µM
CN(C)CC(CO)Nc1ncnc2[nH]ccc12 (stereo not shown) [AVI-3671] | <10% | < 10% | 0.13 | TRUE | 1 | –
OCC(Cc1nccs1)Nc1ncnc2[nH]ccc12 (stereo not shown) [AVI-3673] | 38% | 38% | 0.15 | TRUE | 1 | –
Cc1ccccc1CC(CO)Nc1ncnc2[nH]ccc12 (stereo not shown) [AVI-3674] | 32% | 32% | 0.15 | TRUE | 1 | –
OCC(CN1CCCCC1)Nc1ncnc2[nH]ccc12 (stereo not shown) [AVI-3677] | <10% | < 10% | 0.18 | TRUE | 1 | –
OCC(Nc1ncnc2[nH]ccc12)C1CCOC1 (stereo not shown) [AVI-3679] | 35% | 35% | 0.11 | TRUE | 1 | –
O=C(O)C(F)(F)F.OCC12CC(CN1c1ncnc3[nH]ccc13)C2 [AVI-3681] | – | 54% | 0.12 | TRUE | 1 | inhibition at 200 µM [1, 6]: 54%
Cc1ccc(CC(CO)Nc2ncnc3[nH]ccc23)cc1 (stereo not shown) [AVI-3683] | 14% | 14% | – | – | 2 | Isomers modeled [2]: S,R
Cc1ccc(CC(CO)Nc2ncnc3[nH]ccc23)cc1C (stereo not shown) [AVI-3684] | <10% | < 10% | – | – | 2 | Isomers modeled [2]: R,S
OCC1CCCN1c1ncnc2[nH]ccc12 (stereo not shown) [AVI-3685] | – | 48% | – | – | 1 | fold decrease in affinity relative to AVI-607 ([1]; HTRF): > 20 fold; inhibition at 200 µM [1, 6]: 47%
OCC(Cc1ccc(I)cc1)Nc1ncnc2[nH]ccc12 (stereo not shown) [AVI-3686] | <10% | < 10% | 0.19 | TRUE | 2 | Isomers modeled [2]: S,R
O=C(O)C(F)(F)F.OCC1(Nc2ncnc3[nH]ccc23)CC1 [AVI-3688] | 72% | 72% | 0.17 | TRUE | 1 | –

SMILES | Average % competition [1] | inhibition at 200 µM [1, 3] | PanDDA run, TFA/DMSO background map: 1-BDC [2] | PanDDA run, TFA/DMSO background map: Hit [2] | Number of isomers bound [2] | also measured
OCC(CC1CCCCC1)Nc1ncnc2[nH]ccc12 (stereo not shown) [AVI-3690] | 66% | 66% | – | – | 1 | –
OCC(CC1CCCC1)Nc1ncnc2[nH]ccc12 (stereo not shown) [AVI-3691] | 52% | 53% | 0.1 | TRUE | 1 | –
O=C(O)C(F)(F)F.OCC1(Nc2ncnc3[nH]ccc23)CCCC1 [AVI-3692] | – | – | 0.11 | TRUE | 1 | Ki [1, 4]: 46 µM; Ligand efficiency (binding enery per heavy atom) [1, 4]: 0.35; IC50 [1, 5]: 49 µM
OCC(Nc1ncnc2[nH]ccc12)C1CCc2ccccc21 (stereo not shown) [AVI-3693] | 78% | 78% | – | – | 2 | Isomers modeled [2]: RR,SR
CCC(CC)(CO)Nc1ncnc2[nH]ccc12 [AVI-3695] | – | – | – | – | 1 | Ki [1, 4]: 37 µM; Ligand efficiency (binding enery per heavy atom) [1, 4]: 0.36; IC50 [1, 5]: 40 µM
OCC(Cc1ccccn1)Nc1ncnc2[nH]ccc12 (stereo not shown) [AVI-3696] | 34% | 34% | – | – | 2 | Isomers modeled [2]: R,S
CCC(C)(CO)Nc1ncnc2[nH]ccc12 (stereo not shown) [AVI-3697] | – | – | – | – | 1 | Ki [1, 4]: 34 µM; Ligand efficiency (binding enery per heavy atom) [1, 4]: 0.39; IC50 [1, 5]: 36 µM
OCC(O)C1CCCN1c1ncnc2[nH]ccc12 (stereo not shown) [AVI-3701] | – | 54% | 0.16 | TRUE | 1 | inhibition at 200 µM [1, 6]: 54%
O=C(O)C(F)(F)F.OC[C@H]1CC2(CN1c1ncnc3[nH]ccc13)OCCO2 [AVI-3702] | – | 17% | 0.13 | TRUE | 1 | inhibition at 200 µM [1, 6]: 17%
OCC(Cc1cncs1)Nc1ncnc2[nH]ccc12 (stereo not shown) [AVI-3703] | 28% | 28% | 0.1 | TRUE | 1 | –
CC1(C)C[C@@H](CO)N(c2ncnc3[nH]ccc23)C1.O=C(O)C(F)(F)F [AVI-3704] | – | – | – | – | 1 | Ki [1, 4]: 27 µM; Ligand efficiency (binding enery per heavy atom) [1, 4]: 0.35; IC50 [1, 5]: 29 µM
OCC(Cc1ccoc1)Nc1ncnc2[nH]ccc12 (stereo not shown) [AVI-3705] | 64% | 64% | 0.14 | TRUE | 1 | –
OCC1CC2(CCOCC2)CN1c1ncnc2[nH]ccc12 (stereo not shown) [AVI-3707] | – | 39% | 0.15 | TRUE | 1 | inhibition at 200 µM [1, 6]: 39%
OCC1CC2(CCCC2)CN1c1ncnc2[nH]ccc12 (stereo not shown) [AVI-3708] | – | – | – | – | 1 | Ki [1, 4]: 25 µM; Ligand efficiency (binding enery per heavy atom) [1, 4]: 0.32; IC50 [1, 5]: 27 µM
OCC(COCc1ccccc1)Nc1ncnc2[nH]ccc12 (stereo not shown) [AVI-3709] | 29% | 29% | 0.16 | TRUE | 2 | Isomers modeled [2]: S,R
